Data as given in ChEMBL document CHEMBL1140986, “Sidechain-linked inhibitors of HIV-1 protease dimerization” (Bioorg Med Chem, 2009).
Values after ≈ are worked out from the molar mass of the structure shown. Active and inactive are the calls of the source. The rule behind the calls is not given here. Non-standard residues stand in square brackets, D forms with d. Residues, ends and D or L forms follow the SMILES beside them. *: point of attachment. C16 diacid = O=C(O)CCCCCCCCCCCCCCC(=O)*; aThr = C[C@H](O)[C@H](N)C(=O)O

Columns and labels:
[1] = target: T1, Protease (Human immunodeficiency virus 1, UniProt Q9YQ12); test: Inhibition of HIV1 protease by continuous fluorometric assay
[2] = target: T1, Protease; test: Inhibition of HIV1 protease dimerization by Zhang-Poorman kinetic assay
[3] = Solubility in water; assay type: physicochemical
[4] = target: T1, Protease; test: Inhibition of HIV1 protease by competitive inhibition assay
[5] = target: Protease (Human immunodeficiency virus 1) (UniProt Q9YQ12); test: Binding affinity to HIV1 protease allosteric site at 10 to 50 uM after 1 hr by fluorescence-based cross competition kinetic assay in presence of acetyl-pepstatin
[6] = target: Protease (Human immunodeficiency virus 1) (UniProt Q9YQ12); test: Binding affinity to HIV1 protease active site at 10 to 50 uM after 1 hr by fluorescence-based cross competition kinetic assay in presence of acetyl-pepstatin
[7] = target: Protease (Human immunodeficiency virus 1) (UniProt Q9YQ12); test: Inhibition of HIV1 protease dimerization at 65.3 uM by Zhang-Poorman kinetic assay
[8] = target: Protease (Human immunodeficiency virus 1) (UniProt Q9YQ12); test: Inhibition of HIV1 protease at 130 uM by competitive Lineweaver-Burke plot

For `CC(C)C[C@H](NC(=O)[C@H](CSCCOCCOCCSC[C@H](NC(=O)COc1ccccc1)C(=O)N[C@@H](Cc1ccccc1)C(=O)O)NC(=O)COc1ccccc1)C(=O)N[C@@H](Cc1ccccc1)C(N)=O`, the IC50 [1] was 2.9 µM and the Ki [2] was 1.25 µM.
`CC(C)C[C@H](NC(=O)[C@@H](NC(=O)CCCCCCCCCCCCCCC(=O)N[C@@H](CC(N)=O)C(=O)N[C@@H](Cc1ccccc1)C(=O)O)[C@H](C)O)C(=O)N[C@@H](Cc1ccccc1)C(N)=O` ({Phe-Asn-C16 diacid}-[aThr]-Leu-Phe-NH2) gave a Ki [2] of 3 µM.
`CC(C)C[C@H](NC(=O)[C@H](CSCCOCCOCCSC[C@H](NC(=O)CCc1ccccc1)C(=O)N[C@@H](Cc1ccccc1)C(=O)O)NC(=O)CCc1ccccc1)C(=O)N[C@@H](Cc1ccccc1)C(N)=O` showed an IC50 [1] of 6.5 µM.
With `CC(C)C[C@H](NC(=O)[C@H](CSCCOCCOCCSC[C@H](NC(=O)C1CCCCC1)C(=O)N[C@@H](Cc1ccccc1)C(=O)O)NC(=O)C1CCCCC1)C(=O)N[C@@H](Cc1ccccc1)C(N)=O` the IC50 [1] was 19.5 µM.
Compound `CC(C)C[C@H](NC(=O)[C@H](CSCCOCCOCCSC[C@H](NC(=O)Cc1ccccc1)C(=O)N[C@@H](Cc1ccccc1)C(=O)O)NC(=O)Cc1ccccc1)C(=O)N[C@@H](Cc1ccccc1)C(N)=O` has an IC50 [1] of 2.5 µM.
In the case of `CC(C)C[C@H](NC(=O)[C@@H](NC(=O)CCCCCCCCCCCCCCC(=O)N[C@@H](CC(N)=O)C(=O)N[C@@H](Cc1ccccc1)C(=O)O)[C@@H](C)O)C(=O)N[C@@H](Cc1ccccc1)C(N)=O` ({Phe-Asn-C16 diacid}-Thr-Leu-Phe-NH2), the solubility [3] is reported as 1 µM (≈ 0.908 µg/mL).
`CC(C)C[C@H](NC(=O)[C@H](CSCCOCCOCCSC[C@H](NC(=O)CCCCC1CCCCC1)C(=O)N[C@@H](Cc1ccccc1)C(=O)O)NC(=O)CCCCC1CCCCC1)C(=O)N[C@@H](Cc1ccccc1)C(N)=O` gave an IC50 [1] of 675 µM and a Ki [2] of 88 µM.
`CCCCCCC(=O)N[C@@H](CSCCOCCOCCSC[C@H](NC(=O)CCCCCC)C(=O)N[C@H](C(=O)N[C@@H](Cc1ccccc1)C(N)=O)[C@H](C)CC)C(=O)N[C@@H](Cc1ccccc1)C(=O)O` gave an IC50 [1] of 1.2 µM and a Ki [2] of 510 µM.
In the case of `CCCC(=O)N[C@@H](CSCCOCCOCCSC[C@H](NC(=O)CCC)C(=O)N[C@@H](CC(C)C)C(=O)N[C@@H](Cc1ccccc1)C(N)=O)C(=O)N[C@@H](Cc1ccccc1)C(=O)O`, the IC50 [1] is reported as 87 µM and the Ki [2] is reported as 8.3 µM.
In the case of `CC(C)C[C@H](NC(=O)[C@H](CSCCOCCOCCSC[C@H](NC(=O)CCC1CCCCC1)C(=O)N[C@@H](Cc1ccccc1)C(=O)O)NC(=O)CCC1CCCCC1)C(=O)N[C@@H](Cc1ccccc1)C(N)=O`, the IC50 [1] is reported as 2.5 µM.
With `CC(C)C[C@H](NC(=O)[C@H](CSCCOCCOCCSC[C@H](NC(=O)CC1CCCCC1)C(=O)N[C@@H](Cc1ccccc1)C(=O)O)NC(=O)CC1CCCCC1)C(=O)N[C@@H](Cc1ccccc1)C(N)=O` the IC50 [1] was 9.5 µM.
In the case of `CCCCCCC(=O)N[C@@H](CSCCOCCOCCSC[C@H](NC(=O)CCCCCC)C(=O)N[C@@H](CC(C)C)C(=O)N[C@@H](Cc1ccccc1)C(N)=O)C(=O)N[C@@H](Cc1ccccc1)C(=O)O`, the solubility [3] is reported as 80 µM (≈ 79 µg/mL), the IC50 [1] is reported as 4 µM and the Ki [2] is reported as 1.3 µM.
In the case of `CCC(=O)N[C@@H](CSCCOCCOCCSC[C@H](NC(=O)CC)C(=O)N[C@@H](CC(C)C)C(=O)N[C@@H](Cc1ccccc1)C(N)=O)C(=O)N[C@@H](Cc1ccccc1)C(=O)O`, the Ki [4] is reported as 16.9 µM, the Activity [5] is reported as “Active” and the Activity [6] is reported as “inactive”. For the same compound, the IC50 [1] was 130 µM, the Activity [7] was “inactive” and the Activity [8] was “Active”.
`CCCCC(=O)N[C@@H](CSCCOCCOCCSC[C@H](NC(=O)CCCC)C(=O)N[C@@H](CC(C)C)C(=O)N[C@@H](Cc1ccccc1)C(N)=O)C(=O)N[C@@H](Cc1ccccc1)C(=O)O` gave an IC50 [1] of 50 µM and a Ki [2] of 6.8 µM.
`CCCCCC(=O)N[C@@H](CSCCOCCOCCSC[C@H](NC(=O)CCCCC)C(=O)N[C@@H](CC(C)C)C(=O)N[C@@H](Cc1ccccc1)C(N)=O)C(=O)N[C@@H](Cc1ccccc1)C(=O)O` gave a solubility [3] of 90 µM (≈ 86.3 µg/mL), an IC50 [1] of 14.9 µM and a Ki [2] of 2.3 µM.
Work on `CC[C@@H](C)[C@H](NC(=O)[C@H](CSCCOCCOCCSC[C@H](NC(=O)CCCCC1CCCCC1)C(=O)N[C@@H](Cc1ccccc1)C(=O)O)NC(=O)CCCCC1CCCCC1)C(=O)N[C@@H](Cc1ccccc1)C(N)=O` yielded an IC50 [1] of 64 µM and a Ki [2] of 40.1 µM.
